The values that follow come from patent US20050181066A1, “Novel use of guanylate cyclase activators for the treatment of respiratory insufficiency” (Altana Pharma AG, priority 2002, published 2005).

“Also recorded” adds a separate entry of the source.

One test has as its system isolated rabbit lung. As to the kind of experiment: Isolated, bloodlessly perfused and ventilated rabbit lung with U46619-induced acute pulmonary hypertension. The settings on record: for effect on pulmonary arterial pressure (FIG. 1): U46619-induced pulmonary hypertension, NO 10, 50, 100, 200 ppm cumulatively by inhalation, YC-1 0.1 μM, enhancement at 50, 100, 200 ppm NO, n=6. As to the method:
Model of the Isolated, Bloodlessly Perfused and Ventilated Rabbit Lung
The test animal was anaesthetized by injection of about 700 μl of a mixture of Ketanest and Rompun in the ratio 3:2. The spontaneous breathing of the animal was maintained with this initial anaesthesia. 1 000 I.U. of heparin per kg of bodyweight were injected through the venous access for anticoagulation. For the intubation, 7 ml of Xylocaine were injected into the subcutaneous tissue of the animal's neck. A tube was introduced into the trachea underneath the larynx and was used from this instant onwards to ventilate the animal with ambient air through the ventilating pump (breathing rate: […], tidal volume 30 ml). About 3 ml of the anaesthetic mixture were administered over a period of 15 min. The lungs were then removed by a standard technique; likewise dissection of the pulmonary artery and the ascending aorta.
To make it possible to remove the lung from the body's own perfusion without interruption, the pulmonary artery catheter of the perfusion system was, after incision of the right ventricle, advanced into the pulmonary artery and fixed there by means of the open ligature. After cutting off the apex of the heart and closing the ascending aorta, the lung was artificially perfused with Krebs-Henseleit buffer cooled to 4° C. (the cooling served to reduce metabolism) at 20 ml/min. The ambient air was replaced by a 5% CO2, 15% O2 and 80% N2 gas mixture.
The lung was dissected out of the thorax, and a connector was sutured into the left heart to allow the perfusion circulation to be completed. The lung was suspended on a weighing cell and the perfusion circulation was completed through the connector. The lung perfusate then flowed out through a pressure cascade. The temperature of the complete system was raised to 38° C. and the pressure recording started. In the system, the pulmonary artery pressure, the left ventricular pressure, the ventilation pressure and the weight were recorded continuously. […]

The subject of test [1] is anaesthetized and ventilated rabbit with oleic acid-induced lung damage. Kind of test: Whole animal model of acute pulmonary hypertension with severe gas exchange impairment through oleic acid (MIGET, haemodynamics). The settings on record: for effect on pulmonary arterial pressure (FIG. 2) / effect on systemic arterial pressure (FIG. 3): NO 10, 34, 70, 120, 200 ppm by inhalation, YC-1 5 mg infusion over 10 min; for effect on pulmonary arterial pressure (FIG. 2) / effect on systemic arterial pressure (FIG. 3) / effect on arterial oxygenation / oxygenation index (FIG. 6) / effect on intrapulmonary shunting (MIGET, FIG. 5) / effect on perfusion of normally ventilated areas of the lung (normal V/Q, MIGET, FIG. 7) / effect on pulmonary arterial pressure (FIG. 4): n=6; for effect on arterial oxygenation / oxygenation index (FIG. 6): 150 min after oleic acid injection; for intrapulmonary shunting (MIGET): oleic acid (OA) group 33±2 %; for arterial oxygenation: oleic acid (OA) group 123±13 mmHg; for effect on intrapulmonary shunting (MIGET, FIG. 5) / effect on perfusion of normally ventilated areas of the lung (normal V/Q, MIGET, FIG. 7) / effect on pulmonary arterial pressure (FIG. 4): YC-1 5 mg infusion 30-40 min after oleic acid. In kind it is in vivo. The method, then: Whole Animal Model of Acute Pulmonary Hypertension with Severe Gas Exchange Impairment Through Infusion of Oleic Acid
The test animals In the rabbit model were anaesthetized by injection of about 700 μl of a mixture of Ketanest and Rompun in the ratio 3:2. The spontaneous breathing of the animal was maintained with this initial anaesthesia. 1 000 I.U. of heparin per kg of bodyweight were injected for anticoagulation. For the intubation, 7 ml of Xylocaine were injected into the subcutaneous tissue of the animal's neck. A tube was introduced into the trachea underneath the larynx and was used from this instant onwards for ventilation of the animal through the ventilation pump (breathing rate: […], tidal volume 35 ml). The animal underwent standard ventilation with a 50% N2 and a 50% O2 gas mixture. 7 ml/h of the anaesthetic mixture were administered through a Perfusor, which led to a deep analgesia and relaxation of the animal. The left common carotid artery was ligated and punctured for measurement of the arterial pressure. […] Through this port, a 4F balloon catheter was placed in the right ventricle and the right ventricular pressure was recorded. The gas exchange was analysed by the multiple inert gas elimination technique (MIGET). The MIGET is based on elimination and retention of a plurality of inert gases. Central venous infusion thereof in dissolved form into the animal via the ear margin vein was therefore necessary. This infusion solution was prepared by introducing 250 ml of the perfusate without air bubbles into a gas-tight bag. 0.5 ml of liquid halothane was put into this bag through an injection plug. The bag was then filled with a test gas mixture (10% SF6 3.0, 20% cyclopropane 2.0 and 70% ethane 2.5) and the gases were dissolved in the perfusate. 0.15 ml of diethyl ether was injected, followed by 0.7 ml of acetone. This solution was infused continuously at 30 ml/h into the animal during the equilibration period after change of the perfusate. An equilibrium between retention and elimination of the gases was set up within a period of 30-40 min. After this time, 2.5 ml samples were taken simultaneously from the arterial and venous blood by gas-tight 50 ml glass syringes (B-D Yale, Becton, Dickinson & Co, USA). The arterial and the venous sample was then weighed, blanketed with 15 ml of nitrogen gas (ECD grade) and incubated at 38° C. in a shaking water bath (135 min^−1). During this time, an equilibrium, depending on the solubility of the gas, was set up between the gaseous and liquid phase. After the equilibration time had elapsed, the total volume of the syringe was determined and the supernatant gas was transferred into an air-tight 30 ml glass syringe (B-D Yale, Becton, Dickinson & Co, USA) preheated to 38° C. The latter was stored at 38° C. and used for gas chromatographic analysis. Immediately after removal of the arterial and venous perfusate, a sample of the expired air from the isolated lung was taken by a preheated 30 ml glass syringe on an expiratory gas mixing box. This gaseous sample was analysed immediately in a gas chromatograph. The gases were analysed by a computer-assisted calculation through which essentially the following parameters were calculated: shunting (perfusion, unventilated regions of the lung), normal V/Q (perfusion in normally ventilated regions of the lung).
Besides the MIGET data, the following haemodynamic parameters were determined: • pulmonary arterial pressure • systemic arterial pressure • arterial oxygen partial pressure (pO2)
Catheterization of the animal was followed by injection of 50 μg of oleic acid (OA) into the pulmonary artery. The pulmonary arterial pressure rose after this injection from 11-13 mmHg to a stable plateau of 17-18 mmHg. This rise in the pulmonary arterial pressure was accompanied by severe gas exchange impairment essentially characterized by a fall in the arterial oxygenation and a rise in the shunt perfusion (measured by the MIGET). […]

Test [2] relates to ventilated patients suffering from acute adult respiratory distress syndrome (ARDS). The settings on record: inhaled; cited from earlier work.
For test [3], the system named is patients with post-traumatic pulmonary dysfunction. The settings on record: infusion; 11 patients; cited from earlier work.
Test [4] has as its system rabbit model of acute pulmonary hypertension. The following applies: cited from earlier work; for effect on pulmonary hypertension / pulmonary and systemic vasodilatation: systemic (intravenous) administration, in the combination a dose of dipyridamole with no activity per se.
Test [5] deals with patients with bronchial asthma. The settings on record: intravenous administration; cited from earlier work.
[6] abbreviates: NO 100 ppm inhaled 30-150 min, YC-1 5 mg infusion 30-40 min.

In the case of `[N]=O` [NO, nitric oxide], the “effect on pulmonary arterial pressure (FIG. 1)” value in the test on isolated rabbit lung was “dose-dependent reduction in the pulmonary arterial pressure”. For the same compound, in test [1] (50 μg oleic acid), the “effect on pulmonary arterial pressure (FIG. 2)” value is on record as “dose-dependent reduction in the pulmonary arterial pressure” and the “effect on systemic arterial pressure (FIG. 3)” value was “remained unchanged; also recorded: did not lead to a dose-dependent reduction in the systemic arterial pressure”. Besides, in test [1] (setting [6]), the “effect on arterial oxygenation / oxygenation index (FIG. 6)” value is “significant increase in the arterial oxygenation”, the “intrapulmonary shunting (MIGET)” value is reported as 23±3% and the arterial oxygenation is recorded as 234±21 mmHg. Further, the pulmonary arterial pressure in test [1] (NO 100 ppm inhaled 30-150 min, YC-1 5 mg infusion 30-40 min, oleic acid (OA) group 17.8±1.6 mmHg) came out at 14.5±1.8 mmHg. For the same compound, in test [1] (NO 100 ppm inhaled 30-150 min), the “effect on intrapulmonary shunting (MIGET, FIG. 5)” value was “reduction in the intrapulmonary shunting”; the “effect on perfusion of normally ventilated areas of the lung (normal V/Q, MIGET, FIG. 7)” value is recorded as “significant increase in the perfusion of normally ventilated areas of the lung”; the “effect on pulmonary arterial pressure (FIG. 4)” value is “reduction in the pulmonary arterial pressure”. The “effect on gas exchange” value in test [2] is given as “improvement in gas exchange”.
Turning to `O=[N+]([O-])OCC(CO[N+](=O)[O-])O[N+](=O)[O-]` [Ng, 1,2,3-propanetriyl trinitrate], in test [3], the “effect on acute pulmonary hypertension” value is “reduction in the acute pulmonary hypertension” and the “effect on arterial oxygen content” value was “deterioration in the arterial oxygen content”.
Regarding `CCCCC[C@H](O)/C=C/[C@@H]1[C@@H](C/C=C\CCCC(=O)O)[C@H]2CO[C@@H]1C2` [U46619], in the test on isolated rabbit lung (continuous intravascular 70 to 160 pmol/kg min U46619, raised from 6-8 mmHg), the “pulmonary arterial pressure raised by U46619” value was 33-35 mmHg.
As for `OCc1ccc(-c2nn(Cc3ccccc3)c3ccccc23)o1` [YC-1, 3-(5′-Hydroxymethyl-2′-furyl)-1-benzyl indazole], the “effect on pulmonary arterial pressure (FIG. 1)” value with isolated rabbit lung was “no intrinsic effect on the pulmonary arterial pressure”. For the same compound, in test [1] (50 μg oleic acid), the “effect on pulmonary arterial pressure (FIG. 2)” value is “no effect on the measured parameters” and the “effect on systemic arterial pressure (FIG. 3)” value is listed as “no effect on the measured parameters”. Also, in test [1] (setting [6]), the “effect on arterial oxygenation / oxygenation index (FIG. 6)” value is “significant effect on the oxygenation index”, the “intrapulmonary shunting (MIGET)” value came out at 21±4% and the arterial oxygenation is given as 215±8 mmHg. Further, in test [1] (NO 100 ppm inhaled 30-150 min), the “effect on intrapulmonary shunting (MIGET, FIG. 5)” value is given as “no significant effect on intrapulmonary shunting”; the “effect on perfusion of normally ventilated areas of the lung (normal V/Q, MIGET, FIG. 7)” value is reported as “no significant effect on the perfusion of normally ventilated areas of the lung”; the “effect on pulmonary arterial pressure (FIG. 4)” value was “no effect on the pulmonary arterial pressure”.
Consider `OCCN(CCO)c1nc(N2CCCCC2)c2nc(N(CCO)CCO)nc(N3CCCCC3)c2n1` [dipyridamole], for which the “effect on pulmonary hypertension / pulmonary and systemic vasodilatation” value in test [4] was “dose-dependent reduction in the pulmonary and systemic vasodilatation”.
With `CCCCCCCC/C=C\CCCCCCCC(=O)O` [oleic acid], the “intrapulmonary shunting after oleic acid injection” value in test [1] (50 μg oleic acid) is reported as 30-35%. Moreover, the “pulmonary arterial pressure plateau after oleic acid injection” value in test [1] (50 μg oleic acid into the pulmonary artery, rise from 11-13 mmHg) is 17-18 mmHg.
On to urodilatin, for which the “effect on pressure in the systemic circulation” value in test [4] (intravenous administration) is recorded as “reduces the pressure in the systemic circulation to the same extent”. For the same compound, the “effect on pulmonary hypertension / pulmonary and systemic vasodilatation” value in test [4] was “dose-dependent reduction in the pulmonary and systemic vasodilatation; also recorded: marked reduction in pulmonary hypertension”. Moreover, the “effect on ventilatory parameters” value in test [5] was “improvement in the ventilatory parameters”.
